# The source made the active and inactive calls.
# Assays:
# [1] = test system: Streptococcus sp. 'group A'; experiment: growth inhibition of control SK(-) GAS strain, dose response, counter-screen for streptokinase expression inhibitor project, luminescence, kanamycin, BacTiterGlo, confirmation (AID 1900); format: functional, organism-based
# [2] = microbe, parasite or virus in culture; format: functional; conditions: Mycobacterium tuberculosis
# [3] = test system: Streptococcus; experiment: Group A Streptococcus viability loss, dose response, counter-screen for streptokinase expression inhibitor project, luminescence, BacTiterGlo (AID 1915); format: functional, organism-based;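 further: potency for reduction of bacterial viability or growth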
# [4] = target: Neurotensin receptor type 1 (Homo sapiens, UniProt P30989); format: functional;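 further: Image-based confirmatory dose-response assay measuring agonist activity at NTR1; NTR1-expressing U2OS osteosarcoma cells imaged for beta-arrestin GFP spot formation; agonist potency where compounds increase beta-arrestin recruitment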
# [5] = target: T1, Mannose-6-phosphate isomerase (Homo sapiens, UniProt P34949); experiment: inhibitors of human PMI, primary screen, biochemical, fluorescence intensity, coupled assay (AID 1209)
# T1 sequence (P34949 whole entry): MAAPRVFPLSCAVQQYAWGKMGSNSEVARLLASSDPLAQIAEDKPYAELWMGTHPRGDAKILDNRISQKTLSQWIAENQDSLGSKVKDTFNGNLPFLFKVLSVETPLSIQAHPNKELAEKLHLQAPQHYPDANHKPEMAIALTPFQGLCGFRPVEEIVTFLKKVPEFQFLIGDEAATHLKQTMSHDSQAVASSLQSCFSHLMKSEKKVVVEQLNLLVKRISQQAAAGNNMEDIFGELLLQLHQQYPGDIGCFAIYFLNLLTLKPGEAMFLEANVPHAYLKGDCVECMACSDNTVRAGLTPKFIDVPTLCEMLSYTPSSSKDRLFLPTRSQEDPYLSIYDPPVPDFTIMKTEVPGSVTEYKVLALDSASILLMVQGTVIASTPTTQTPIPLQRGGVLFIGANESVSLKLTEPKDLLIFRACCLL
# [6] = target: T2, Carboxy-terminal domain RNA polymerase II polypeptide A small phosphatase 1 (Homo sapiens, UniProt Q9GZU7); experiment: inhibitors of CTDSP1, concentration-response testing, biochemical assay, absorbance-based, actives from ultra-high-throughput screening (AID 540297); format: functional
# T2 sequence (Q9GZU7 whole entry): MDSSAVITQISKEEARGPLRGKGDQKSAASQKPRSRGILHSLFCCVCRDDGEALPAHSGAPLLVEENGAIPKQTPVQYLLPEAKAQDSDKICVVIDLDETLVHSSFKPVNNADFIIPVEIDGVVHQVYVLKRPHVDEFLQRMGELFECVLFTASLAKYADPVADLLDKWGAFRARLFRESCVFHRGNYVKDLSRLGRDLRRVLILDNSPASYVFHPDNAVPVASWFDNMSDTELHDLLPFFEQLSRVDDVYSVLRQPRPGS
# [7] = target: T3, Streptokinase A (Streptococcus pyogenes serotype M1, UniProt P10520); experiment: S. pyogenes streptokinase expression inhibitors, potency, dose response, plasminogen activation absorbance, OD405 (AID 1914); format: functional, Streptococcus pyogenes M1 GAS;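 further: secreted streptokinase activity via plasminogen activation per viability signal from cell pellet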
# T3 sequence (P10520 whole entry): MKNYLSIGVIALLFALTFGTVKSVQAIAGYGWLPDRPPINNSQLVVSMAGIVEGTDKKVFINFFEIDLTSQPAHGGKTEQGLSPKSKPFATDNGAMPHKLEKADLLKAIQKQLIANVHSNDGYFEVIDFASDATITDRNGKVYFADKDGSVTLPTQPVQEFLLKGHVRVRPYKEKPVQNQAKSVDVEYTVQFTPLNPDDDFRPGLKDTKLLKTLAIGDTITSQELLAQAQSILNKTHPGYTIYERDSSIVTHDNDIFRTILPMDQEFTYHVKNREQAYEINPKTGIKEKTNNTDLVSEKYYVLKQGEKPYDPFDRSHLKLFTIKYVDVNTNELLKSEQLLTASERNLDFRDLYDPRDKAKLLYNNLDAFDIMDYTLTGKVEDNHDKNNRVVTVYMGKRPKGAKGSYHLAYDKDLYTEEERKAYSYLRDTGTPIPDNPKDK
# [8] = M. tuberculosis H37Rv growth inhibitors, H37Rv strain (AID 1626); format: functional
# [9] = HEp-2 cell cytotoxicity, dose response, cytotoxicity control for RSV inhibitor project, HTS (AID 2410); format: functional; conditions: human respiratory syncytial virus
# [10] = Luminescence Cell-Based Dose Retest to Confirm Inhibitors of Cancer Stem Cells. [Related pubchem assays (depositor defined):AID2717, AID2721]; format: functional; conditions: Homo sapiens
# [11] = cells
# [12] = Luminescence Cell-Based Dose Confirmation HTS to Identify Inhibitors of Polyadenylation.; format: functional
# [13] = target: NS3 (Hepatitis C virus, UniProt A3EZJ3); experiment: PubChem AID 2173; parameters: species or system Hepacivirus hominis
# [14] = inhibitors of intracellular T. cruzi replication, confirmation, NIH3T3 host cells, beta-gal luminescence (AID 2044); format: functional, cell-based;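 further: intracellular parasites grown in NIH/3T3 mouse fibroblasts as host cells; luminescent beta-galactosidase reporter signal from transgenic T. cruzi replicating inside host cells; inhibitors lower the luminescence signal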
# [15] = growth suppression of PTEN-null colon cells, dose response, cell-based, HCT116 PTEN knockout (AID 1047); format: functional;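 further: HCT116 colon tumor cells with PTEN knocked out; cells exposed to compound for 60 hours before readout; potency for loss of cell viability measured by luminescence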
# [16] = cytotoxicity toward NIH3T3 fibroblasts, dose response, counter-screen, cell-based, ATP luminescence, mouse fibroblasts (AID 2010); format: functional;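 further: cells exposed to compound for about 90 hours before reading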
# [17] = growth suppression of beta-catenin-knockout colon cells, dose response, cell-based, HCT116, human colon tumor (AID 1045); format: functional;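 further: HCT116 colon tumor cells with beta catenin knocked out; cells exposed to compound for 60 hours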
# [18] = target: T4, Estrogen receptor (Homo sapiens, UniProt P03372);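 further: potency for inhibiting coactivator peptide recruitment to the receptor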
# T4 sequence (P03372 whole entry): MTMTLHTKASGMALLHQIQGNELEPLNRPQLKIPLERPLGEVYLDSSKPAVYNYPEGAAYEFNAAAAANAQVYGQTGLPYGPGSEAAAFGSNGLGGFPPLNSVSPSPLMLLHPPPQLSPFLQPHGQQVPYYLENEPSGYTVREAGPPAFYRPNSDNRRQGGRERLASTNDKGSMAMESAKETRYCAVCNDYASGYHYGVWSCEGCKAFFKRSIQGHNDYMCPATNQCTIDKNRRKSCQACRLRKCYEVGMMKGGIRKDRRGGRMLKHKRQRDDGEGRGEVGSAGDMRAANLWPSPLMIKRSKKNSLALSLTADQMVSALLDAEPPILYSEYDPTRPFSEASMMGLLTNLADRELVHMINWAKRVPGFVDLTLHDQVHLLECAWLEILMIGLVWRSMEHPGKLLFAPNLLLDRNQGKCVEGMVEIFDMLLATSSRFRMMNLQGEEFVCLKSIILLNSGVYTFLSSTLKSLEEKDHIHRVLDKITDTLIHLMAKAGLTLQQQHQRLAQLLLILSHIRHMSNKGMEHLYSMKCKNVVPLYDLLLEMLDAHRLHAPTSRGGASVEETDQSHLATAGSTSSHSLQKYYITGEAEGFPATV
# [19] = A cytotoxicity screen of small molecule inhibitors of the PhoP region in Salmonella typhi identified in the primary screen. [Related pubchem assays: 1850, 1864, 1985 ]; format: functional
# 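Wherever AC50 is given: cells exposed to compound for roughly 70 hours or longer before luminescence read.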
# Sequence of Neurotensin receptor type 1 (P30989 whole entry): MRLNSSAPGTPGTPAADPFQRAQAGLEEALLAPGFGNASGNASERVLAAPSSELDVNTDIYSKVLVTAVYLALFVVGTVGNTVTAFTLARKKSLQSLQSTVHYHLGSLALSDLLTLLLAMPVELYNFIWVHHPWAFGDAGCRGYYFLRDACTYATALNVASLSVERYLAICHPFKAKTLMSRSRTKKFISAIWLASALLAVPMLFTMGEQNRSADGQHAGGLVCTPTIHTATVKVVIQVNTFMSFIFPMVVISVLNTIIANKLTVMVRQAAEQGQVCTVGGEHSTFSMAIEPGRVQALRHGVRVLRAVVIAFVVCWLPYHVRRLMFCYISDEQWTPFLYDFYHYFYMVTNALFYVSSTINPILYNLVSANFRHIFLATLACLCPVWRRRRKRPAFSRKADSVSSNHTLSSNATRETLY
# Sequence of NS3 (A3EZJ3 whole entry): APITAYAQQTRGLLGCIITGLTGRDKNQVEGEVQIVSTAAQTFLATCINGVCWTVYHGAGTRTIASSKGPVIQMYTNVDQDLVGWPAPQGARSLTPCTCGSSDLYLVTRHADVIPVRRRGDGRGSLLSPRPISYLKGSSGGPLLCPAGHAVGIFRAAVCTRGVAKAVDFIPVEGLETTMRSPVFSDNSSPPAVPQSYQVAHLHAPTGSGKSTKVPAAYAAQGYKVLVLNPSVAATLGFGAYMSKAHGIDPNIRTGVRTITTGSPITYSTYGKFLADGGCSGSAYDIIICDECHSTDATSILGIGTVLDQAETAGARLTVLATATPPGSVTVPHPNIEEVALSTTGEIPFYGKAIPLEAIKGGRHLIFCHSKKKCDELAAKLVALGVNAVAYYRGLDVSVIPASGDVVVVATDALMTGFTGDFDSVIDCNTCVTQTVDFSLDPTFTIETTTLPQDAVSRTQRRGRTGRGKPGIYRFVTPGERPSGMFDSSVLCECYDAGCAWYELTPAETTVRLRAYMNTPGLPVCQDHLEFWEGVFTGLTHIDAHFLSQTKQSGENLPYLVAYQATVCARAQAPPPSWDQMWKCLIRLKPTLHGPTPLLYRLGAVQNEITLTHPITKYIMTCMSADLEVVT
structure (smiles),measurement,setting,value
C/C(=N/Nc1cc(-c2ccccc2)nc(-c2ccccc2)n1)c1ccc(O)cc1,EC50,[1],1.52 µM (active)
same,CC50,[2],18.2 µM (active)
same,EC50,[3],1.56 µM (active)
same,EC50,[4],15.9 µM (active)
CC[n+]1c(C)n(-c2ccccc2)c2ccc(NC(C)=O)cc21,IC50,[5],> 50 µM (not active)
same,IC50,[6],5.18 µM (active)
COc1ccc(OCCn2c(NC(=O)c3ccco3)nc3ccccc32)cc1,EC50,[1],5.47 µM (active)
same,EC50,[7],> 150 µM (not active)
same,IC50,[8],> 100 µM (active)
same,EC50,[3],> 150 µM (not active)
COC(=O)c1sc2nc(N3CCCCC3)c3c(c2c1N)CCCC3,CC50,[9],> 50 µM (active)
same,AC50,[10],2.95 µM (active)
same,IC50,[11],> 50 µM (active)
COc1cc(C(=O)Nc2c(C)cc(C)cc2C)c(Br)c(OC)c1OC,EC50,[12],> 120 µM (not active)
O=[N+]([O-])c1ccccc1S(=O)(=O)Nc1cccc(-c2ccc(N3CCOCC3)nn2)c1,CC50,[9],> 50 µM (active)
same,IC50,[11],16.8 µM (active)
CC(C)C(C)(C#N)NC(=O)CSc1nc2scc(-c3ccco3)c2c(=O)n1-c1ccccc1 (stereo not given),IC50,[13],11.3 µM (not active)
CCCCCn1c(N2CCC(Cc3ccccc3)CC2)nc2c1c(=O)[nH]c(=O)n2C,EC50,[14],0.971 µM (active)
same,EC50,[15],11.9 µM (active)
same,EC50,[16],> 60 µM (not active)
same,EC50,[17],12.7 µM (active)
same,EC50,[4],9.08 µM (active)
COc1cc(C(=O)OCC(=O)Nc2c(F)c(F)c(F)c(F)c2F)cc(OC)c1OC,IC50,[18],> 50 µM (not active)
O=C(COC(=O)Cc1ccccc1F)Nc1ccc2c(c1)OCO2,IC50,[8],> 100 µM (active)
Cc1ccc(CCCOC(=O)C[N+]2(C)CCCC2)cc1,IC50,[5],> 50 µM (not active)
same,IC50,[6],11 µM (active)
Cc1nc2ccc(NC(=O)C(F)(F)F)cc2o1,IC50,[8],> 100 µM (active)
CCN=C(S)Nc1cc(-c2ccc(Cl)cc2)[nH]n1,EC50,[19],> 50 µM (active)
same,IC50,[5],> 50 µM (not active)
O=C1c2ccccc2C(=O)N1CCCCN(C(=O)c1cc2ccccc2oc1=O)c1ccc(Cl)cc1,IC50,[11],21.9 µM (active)

# Source: ChEMBL document CHEMBL1201862, “PubChem BioAssay data set” (2004)
